Tests used:
Format in all cases: cell-based
[1] = tested on: pRb2/p130-multimolecular complex on ER-α promoter in MCF-7 cells; test: XChIP analysis of recruitment of pRb2/p130-multimolecular complex to the ER-α promoter in 5-Aza-2dC treated MCF-7 cells; settings: 72 hours treatment
Description: After removal of the medium, cells were washed three times on plates with cold phosphate-buffered saline (PBS) containing protease inhibitors (1 mM phenylmethyl-sulfonyl fluoride, 1 μg/ml aprotinin and 1 μg/ml pepstatin A), scraped, and washed again twice in cold PBS. The cell pellet was resuspended in SDS lysis buffer (1% SDS, 10 mM EDTA, 50 mM Tris-HCl, pH 8.1), incubated for 10 minutes on ice, sonicated to shear DNA to lengths between 300 and 500 bp, and centrifuged for 10 minutes at 13,000 rpm at 4° C. Sonicated cell supernatant was diluted in ChIP dilution buffer (0.01% SDS, 1.1% Triton X-100, 1.2 mM EDTA, 16.7 mM Tris-HCL, pH 8.1, 167 mM NaCL), and pre-cleared twice with salmon sperm DNA/protein A agarose at 4° C. for 2 hours. The agarose was pelleted and the supernatant fraction was collected and incubated overnight at 4° C. with the immunoprecipitating antibody.
As negative controls, a “no-antibody” immunoprecipitation was performed by incubating the supernatant fraction with salmon sperm DNA/protein A agarose, and immunoprecipitating the mixture with an irrelevant antibody. […]

ER-α in MDA-MB-231 cells = test: Effect of 5-Aza-2dC on ER-α RNA (RT-PCR) and protein (Western blot) expression in MDA-MB-231 cells
Description: The expression of β-actin protein in each sample was assessed to normalize protein loading.
The breast carcinoma cell lines, MCF-7 (estrogen receptor-positive), MDA-MB-231 (estrogen receptor-negative) and the normal mammary epithelial cell line MCF-12A, were obtained from ATCC (Rockville, Md.) and were cultured according to the manufacturer's protocols. The breast primary tumors were selected on the basis of estrogen receptor status.
Control cells were left untreated. Total RNA was isolated from the treated and control cells, and ER-α RNA was detected by reverse-transcription polymerase chain reaction (RT-PCR). P-actin RNA expression was also determined by RT-PCR in total RNA isolated from treatment and control cells to normalize RNA loading. […] The expression of β-actin protein was assessed to normalize protein loading.

[2] = tested on: pRb2/p130-multimolecular complex on ER-α promoter in MDA-MB-231 cells; test: XChIP analysis of recruitment of pRb2/p130-multimolecular complex to the ER-α promoter in 5-Aza-2dC treated MDA-MB-231 cells; settings: 72 hours treatment, complex contained pRb2/p130, E2F4, SUV39H1, p300, HDAC1
Description: Soluble chromatin was immunoprecipitated with specific antibodies recognizing pRb2/p130, E2F4, HDAC1, SUV39H1, DNMT1, and p300. The presence of ER-α promoter sequences in the immunoprecipitates was tested by PCR using specific primers spanning ER-α promoter.
Chromatin immunoprecipitations were performed using a modified procedure of previously published methods (see Orlando et al., 1997, Methods and 11, 205; Keller et al., 2002, J. Biol. Chem., 277, 31430, the entire disclosures of which are herein incorporated by reference), in combination with Western blot and PCR techniques. Approximately 1×10^6 MCF-7 and MDA-MB-231 cells were cross-linked by adding formaldehyde (1% final concentration) directly to the culture medium, and incubating the cells for 8 minutes at 37° C.
After removal of the medium, cells were washed three times on plates with cold phosphate-buffered saline (PBS) containing protease inhibitors (1 mM phenylmethyl-sulfonyl fluoride, 1 μg/ml aprotinin and 1 μg/ml pepstatin A), scraped, and washed again twice in cold PBS. […]
The recruitment of pRb2/p130-multimolecular complexes to ER-α promoter was analyzed in MCF-7 and MDA-MB-231 cells by XChIP. […]

Nc1ncn([C@H]2C[C@H](O)[C@@H](CO)O2)c(=O)n1 [5-Aza-2dC, 5-Aza-2′-deoxycytidine]
composition of pRb2/p130-multimolecular complex recruited onto ER-α promoter [1]: did not influence the composition
time of maximal ER-α RNA expression (ER-α in MDA-MB-231 cells; MDA-MB-231 cells treated with 5-Aza-2dC): 72 h
expression of ER-α RNA (ER-α in MDA-MB-231 cells; MDA-MB-231 cells, 2.5 μM, 24-96 hours, RT-PCR, especially evident at 48-96 h): significantly enhanced
expression of ER-α protein (ER-α in MDA-MB-231 cells; MDA-MB-231 cells, 2.5 μM, 24-96 hours, Western blot, especially evident at 48-96 h): significantly enhanced
composition of pRb2/p130-multimolecular complex recruited to ER-α promoter [2]: did not contain DNMT1

— patent publication US7635561B2, “Methods of diagnosing, prognosing and treating breast cancer” (Temple University of the Commonwealth System of Higher …, priority 2003, dated 2009)
